Data published in US20160193219A1, “SUBSTITUTED 2,3-DIHYDROIMIDAZO[1,2-C]QUINAZOLINE SALTS” (priority 2011, published 2016).
Where a name gives a salt, the structure may show the parent alone. Read-outs that look alike come from different tables or passages of the source.

What was measured:
[1] = Stability as solid (stored at 90° C. for 1 week, HPLC); type: physicochemical; settings: for therm. stab. solid: 1 w @ 90° C.; for sum of impurities: HPLC area
[2] = 16 h
[3] = for pH: Saturated solution in water; for XRPD (solid residue): solid retained on filter after 20 h in water at 25° C.
[4] = Crystallinity by XRPD; type: physicochemical
[5] = Additional solubility data in different solvents (20 h at 25° C.); type: physicochemical
Procedure: The dihydrochloride of formula (II) was stirred in 20 mL of different solvents for 20 h at 25° C. In all hydrous solvents approx. 2 g of the dihydrochloride of formula (II) have been solved completely.

[6] = system: 16 tumor cell lines covering 6 cancer indications; assay: Proliferation assays, panel of 16 tumor cell lines; type: cell-based; settings: all the tumor cell lines tested (panel of 16)
Procedure: Cell proliferation is determined using the Cell Titer-Glo luminescent cell viability kit from Promega (Cat. #G7573) after 72 hours exposure to the drugs. Briefly, cells were plated at 500-1000 cells/well of 384-well plates in 25 μL growth medium. For each cell line assayed, cells were plated into a separate plate for determination of luminescence at the t=0 hours and t=72 hour time points. […] Dose plates for t=72 hour time points were treated with compounds diluted into growth medium in a final volume of 30 μL. Cells were then incubated for 72 hours at 37° C. Luminescence values for the t=72 hour samples were determined by adding 30 μL of Promega CellTiter-Glo solution, placing the cells on a shaker for 10 minutes at room temperature, and then reading the luminescence using a Victor luminometer. For data processing, t=0 values are subtracted from those determined for the t=72 hour time points, for both the treated and untreated samples. Percent differences in luminescence between drug treated and controls are used to determine percent inhibition of growth.

[7] = physchem; settings: 25 °C, water, thermodynamic from solid
[8] = system: PC3; assay: Proliferation assay (Cell Titer-Glo, 72 h), PC3; settings: PC3, Prostate, dihydrochloride
[9] = system: T47D; assay: Proliferation assay (Cell Titer-Glo, 72 h), T47D; settings: Breast, dihydrochloride
[10] = system: BT20; assay: Proliferation assay (Cell Titer-Glo, 72 h), BT20; settings: BT20, Breast, dihydrochloride
[11] = system: MCF7; assay: Proliferation assay (Cell Titer-Glo, 72 h), MCF7; settings: MCF7, Breast, dihydrochloride
[12] = system: HT29; assay: Proliferation assay (Cell Titer-Glo, 72 h), HT29; settings: HT29, Colon, dihydrochloride
[13] = system: A549; assay: Proliferation assay (Cell Titer-Glo, 72 h), A549; settings: A549, Lung, dihydrochloride
[14] = system: H460; assay: Proliferation assay (Cell Titer-Glo, 72 h), H460; settings: H460, Lung, dihydrochloride
[15] = system: 786O; assay: Proliferation assay (Cell Titer-Glo, 72 h), 786O; settings: Kidney, dihydrochloride
[16] = system: BT474; assay: Proliferation assay (Cell Titer-Glo, 72 h), BT474; settings: BT474, Breast, dihydrochloride
[17] = system: LNCaP; assay: Proliferation assay (Cell Titer-Glo, 72 h), LNCaP; settings: Prostate, dihydrochloride
[18] = system: HCT116; assay: Proliferation assay (Cell Titer-Glo, 72 h), HCT116; settings: HCT116, Colon, dihydrochloride
[19] = system: SK-Br-3; assay: Proliferation assay (Cell Titer-Glo, 72 h), SK-Br-3; settings: SK-Br-3, Breast, dihydrochloride
[20] = system: Colo205; assay: Proliferation assay (Cell Titer-Glo, 72 h), Colo205; settings: Colo205, Colon, dihydrochloride
[21] = system: MDA-MB-468; assay: Proliferation assay (Cell Titer-Glo, 72 h), MDA-MB-468; settings: MDA-MB-468, Breast, dihydrochloride
[22] = solid stored at 90° C. for 1 week
[23] = listed as Hydrochloric acid (Ex. 1), dihydrochloride

Question: What does the source list for `COc1c(OCCCN2CCOCC2)ccc2c1N=C(NC(=O)c1cnc(N)nc1)N1CCN=C21.CS(=O)(=O)O.CS(=O)(=O)O` [Comparative Example 6]?
Answer: therm. stab. solid [1]: +; HPLC, area % DS [1, 22]: ~96.7% (sum of; HPLC, wt % DS [1, 22]: 59.5 wt %; sum of impurities [1, 22]: impurities ~3.3%); aqu. solubility [2]: >8.3 mg/100 ml; pH [3]: ~2.3

Question: With `COc1c(OCCCN2CCOCC2)ccc2c1N=C(NC(=O)c1cnc(N)nc1)N1CCN=C21.O=C(O)/C=C\C(=O)O.O=C(O)/C=C\C(=O)O` [Comparative Example 5] as the compound, how does the therm. stab. solid [1] read?
Answer: +

Question: And the “HPLC, area % DS” value [1, 22]?
Answer: ~96.9% (sum of

Question: And the “HPLC, wt % DS” value [1, 22]?
Answer: 59.4 wt %

Question: What about the sum of impurities [1, 22] of the same compound?
Answer: impurities ~3.1%)

Question: What about the crystallinity [4] of the same compound?
Answer: +

Question: What about the aqu. solubility [2] of the same compound?
Answer: >8.1 mg/100 ml

Question: What about the pH [3] of the same compound?
Answer: 3.1

Question: And the “XRPD (solid residue)” value [3]?
Answer: crystalline

Question: What does the source list for `COc1c(OCCCN2CCOCC2)ccc2c1N=C(NC(=O)c1cnc(N)nc1)N1CCN=C21` [dihydrochloride salt of formula (II), 2-amino-N-[7-methoxy-8-(3-morpholin-4-ylpropoxy)-2,3-dihydroimidazo[1,2-c]quinazolin-5-yl]pyrimidine-5-carboxamide dihydrochloride]?
Answer: therm. stab. solid [1, 23]: +; HPLC, area % DS [1, 22]: ~98.2%; sum of; HPLC, wt % DS [1, 22]: ~65.6 wt %; Stability as solid (Comments) [1, 22]: Stable; sum of impurities [1, 22]: impurities ~1.8%; Solubility ([5]; 0.1M HCl, 20 h at 25° C.): ≧8800 mg/100 ml soluble; Solubility ([5]; Acetone, 20 h at 25° C.): 0.3 mg/100 ml practically insoluble; Solubility ([5]; Acetonitrile, 20 h at 25° C.): 1.1 mg/100 ml practically insoluble; Solubility ([5]; Buffer pH 4.5, 20 h at 25° C.): ≧8900 mg/100 ml soluble; Solubility ([5]; Buffer pH 7.0, 20 h at 25° C.): ≧8700 mg/100 ml soluble; Solubility ([5]; Ethanol, 20 h at 25° C.): 24.8 mg/100 ml very slightly soluble; Solubility ([5]; PEG400, 20 h at 25° C.): 301 mg/100 ml slightly soluble; Solubility ([5]; Water, 20 h at 25° C.): ≧9400 mg/100 ml soluble; crystallinity [4, 23]: ++; difference in the IC50 values (free base vs dihydrochloride salt) [6]: less than 3 fold; solubility thermodynamic at 16 h [7]: > 88 µg/mL; IC50 [8]: 90 nM; IC50 [9]: 2 nM; IC50 [10]: 2 nM; IC50 [11]: 9 nM; IC50 [12]: 10 nM; IC50 [13]: 44 nM; IC50 [14]: 67 nM; IC50 [15]: 247 nM; IC50 [16]: 10 nM; IC50 [17]: 67 nM; IC50 [18]: 72 nM; IC50 [19]: 1 nM; IC50 [20]: 110 nM; IC50 [21]: 256 nM; pH [3]: ~2.4; XRPD (solid residue) [3]: crystalline; Solubility ([3]; water, 25° C., 20 h, HPLC): >8.8 mg/100 ml
